Reference: patent publication US10272117B2, “Methods of using an activator of cereblon for neural cell expansion and the treatment of central nervous system disorders” (Celgene Corporation, priority 2014, dated 2019)

Test system: zebrafish embryos
Assay: Whole-mount in situ hybridization of gene expression in zebrafish embryos
Assay type: in vivo
Method: This process was carried out basically in accordance with the technique of Thisse et al. See High-resolution In Situ Hybridization to Whole-mount Zebrafish Embryos, Nat. Protcol., 3 (1) 59-69, (2008). The differences were that 5 mg/ml Torula yeast RNA was used as a blocker in the probe hybridization solution, and that 0.5% Blocking Reagent (Roche) was used as a blocker in the antibody reaction solution. The cDNA of the genes used as the probe (the six3.2 gene, the emx1 gene, the pax2.1 gene, the foxg1 gene, and the otx2 gene) were presents of the original provider. As the probe for the lhx2 gene, the one initially cloned by Ando was used. For the probes of the CRBN gene and related genes, primers were designed based on the EST database of zebrafish, and the probes were cloned from a cDNA library.
Expression of Pou5f1 (Oct3/4), Klf4, c-Myc, and HuC (Elavl3) in zebrafish embryos was analyzed by in situ hybridization. The embryos were fixed with 4% paraformaldehyde for 1 hour at room temperature and rinsed with phosphate buffered saline (PBS). The fixed embryos were refixed with 100% methanol and placed at −80° C. for over 12 hours. The embryos were defixed by rinsing with PBS, and the skin was digested with pronase (2 mg/ml), followed by refixation and defixation, and prehybridized in HYB* buffer (50% formamide, 5×SSC, 10 mM Citric acid, 0.1% Tween 20) for 15 minutes and in HYB+(added as 5 mg/ml torula (yeast) RNA, 50 μg/ml heparin to HYB*) for 1 hour at 65° C. After addition of 1 ng/μl of DIG (digoxigenin)-labeled probe, hybridization was performed for overnight at 65° C. After hybridization, the embryos were washed by 50% formamide in 2×SSC for 30 minutes (twice), 2×SSC for 15 minutes, 0.2×SSC for 30 minutes (twice) at 65° C. Then blocking treatment was done by 0.5% purified casein in PBSTw (PBS plus 0.1% Tween 20) at room temperature for 1 hour. After that, immunostaining was performed in 1/4000 dilution of anti-DIG Fab-AP fragment in 0.5% purified casein in PBSTw for 4 hours at room temperature.
After washing with PBSTw for 90 minutes, staining was carried out in the presence of substrate of alkaline phosphatase (Nitro blue tetrazolium and 5-bromo 4-chloro 3-indolyl phosphate) in 100 mM Tris pH 9.5, 50 mM MgCl2, 100 mM NaCl, and 0.1% Tween-20. Reaction was stopped by rapid exchange of reaction buffer to PBSTw and cleaned with glycerol serials (30%, 50%, and 70% in PBS).
Expression of Ascl1a and Pou3f2b in CRBN-overexpressing and Ikaros-knockdown zebrafish embryos was analyzed by in situ hybridization. The embryos were fixed with 4% paraformaldehyde for 1 hour at room temperature and rinsed with phosphate buffered saline (PBS). The fixed embryos were refixed with 100% methanol and placed at −80° C. for over 12 hours. The embryos were defixed by rinsing with PBS, and the skin was digested with pronase (2 mg/ml), followed by refixation and defixation, and prehybridized in HYB* buffer (50% formamide, 5×SSC, 10 mM Citric acid, 0.1% Tween 20) for 15 minutes and in HYB+(added as 5 mg/ml torula (yeast) RNA, 50 μg/ml heparin to HYB*) for 1 hour at 65° C. After addition of 1 ng/μl of DIG (digoxigenin)-labeled probe, hybridization was performed for overnight at 65° C. After hybridization, the embryos were washed by 50% formamide in 2×SSC for 30 minutes twice, 2×SSC for 15 minutes, 0.2×SSC for 30 minutes twice at 65° C. Then blocking treatment was done by 0.5% purified casein in PBSTw (PBS plus 0.1% Tween 20) at room temperature for 1 hour. After that, immunostaining was performed in 1/4000 dilution of anti-DIG Fab-AP fragment in 0.5% purified casein in PBSTw for 4 hours at room temperature.
Expression of Sox2, Pou5f1 (Oct3/4), c-Myc, and Klf4 in zebrafish embryos was analyzed in untreated and CRBN-overexpressing zebrafish embryos by in situ hybridization. Overexpression was performed as follows: single-cell stage embryos were microinjected with 250 ng/μl of capped mRNA synthesized in vitro. […]

Row | Substance | expression of Pou5f1 (Oct3/4) in the second and fourth rhombomeres in the hindbrain (10 hpf and 11 hpf) | expression of Huc in the brain and spinal cord (11 hpf) | number of HuC-positive neural progenitor cells in the brain and spinal cord (15 hpf) | number of the telencephalic neurons and the spinal cord neurons (16 hpf) | expression of Klf4 in the rostral portion of the neural tube (18 hpf) | expression of c-Myc in the tectal proliferation zone and ciliary marginal zone (30 hpf) | expression of Ascl1a (25 hpf) | expression of Pou3f2b (26 hpf)
1 | 5′-TGTGTTTCTTGTGCTTTTTGCCCAT-3′ (all phosphorodiamidate morpholino (PMO)) [BRD7-knockdown, 25-mer antisense morpholino oligonucleotide (AMO) used for the BRD7 gene knockdown] | increased | increased | increased | increased | increased | clearly increased |  | 
2 | 5′-TTCCTGTGCCTCCTCAGTCTCCATC-3′ (all phosphorodiamidate morpholino (PMO)) [Ikaros-knockdown, 25-mer antisense morpholino oligonucleotide (AMO) used for the Ikaros gene knockdown] |  |  |  |  |  |  | remarkably increased | increased
